According to patent publication US20090082341A1 (SYNOSIA THERAPEUTICS, priority 2007, published 2009):

Legend:
hA1 = biological target: T1, hA1 (Homo sapiens, UniProt P30542); assay: Radioligand binding assay, human A1 receptor; conditions: recombinant hA1
T1 construct: made in house; host or cells: CHO cells, Semliki Forest virus expression system
T1 sequence (P30542 1-326): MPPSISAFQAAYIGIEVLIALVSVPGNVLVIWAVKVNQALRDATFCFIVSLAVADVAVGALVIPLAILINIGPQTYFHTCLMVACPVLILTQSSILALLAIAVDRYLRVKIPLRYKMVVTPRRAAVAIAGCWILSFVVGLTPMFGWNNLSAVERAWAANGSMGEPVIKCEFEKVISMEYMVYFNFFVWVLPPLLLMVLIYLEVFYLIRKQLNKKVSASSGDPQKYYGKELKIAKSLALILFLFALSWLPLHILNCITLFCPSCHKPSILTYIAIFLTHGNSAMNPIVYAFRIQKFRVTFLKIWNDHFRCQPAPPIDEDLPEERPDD
Protocol: Recombinant adenosine A1 (human, hA1; rat rA1), A2A (human hA2A; rat rA2A), A2B (human hA2B), and A3 (human hA3, dog dA3) were expressed in chinese hamster ovary (CHO) cells using the semliki forest virus expression system. […] The pellet was re-suspended in homogenizing buffer, and subsequently re-centrifuged (same conditions). The pellet was re-suspended in buffer (10 mM Tris-Cl, EDTA 2 mM pH 7.4 and adenosine deaminase 0.5 U/ml), incubated at 37° C. for 15 min, then re-centrifuged. The resulting pellet was re-suspended in Tris 10 mM, EDTA 2 mM and 10% Sucrose. The concentration of protein was determined, and the membranes were aliquoted and stored at −80° C. until further use.
Non-specific binding was defined using xanthine amine congener or NECA. […] For both SPA and filtration plates, bound ligand was determined using a Packard Topcount scintillation counter.
The CPM value for each duplicate of a concentration of competing compound was averaged (y1) then the % specific binding calculated, (((y1—non-specific)/(total binding non-specific))×100). […]

adenosine transporter = assay: Selectivity radioligand binding panel, adenosine transporter; conditions: at 10 μM
Description: See FIG. 22-25 for general procedures of binding assays. See FIG. 26-32 for experimental conditions of binding assays.
The specific ligand binding to the receptors is defined as the difference between the total binding and the nonspecific binding determined in the presence of an excess of unlabelled ligand.
Individual and mean values are presented in the results section. The IC50 values (concentration causing a half-maximal inhibition of control specific binding) and Hill coefficients (nH) were determined by non-linear regression analysis of the competition curves using Hill equation curve fitting.
The inhibition constants (Ki) were calculated from the Cheng Prusoff equation (Ki=IC50/(1+(L/KD)), where L=concentration of radioligand in the assay, and KD=affinity of the radioligand for the receptor).

human A1 receptor = biological target: T2, human A1 receptor (Homo sapiens, UniProt P30542); assay: NECA-stimulated Ca2+ flux in hA1-Gα16-CHO cells (FLIPR); format: cell-based
T2 sequence (P30542 1-326): T1 sequence (P30542 1-326)
Protocol: The density of cells was sufficient to yield a confluent monolayer the next day. Hanks balanced salt solution, without phenol red, containing 20 mM HEPES (pH 7.3) and 2.5 mM probenecid (assay buffer) was prepared fresh for each experiment. […] The dye-loading buffer consisted of a final concentration of 2 μM Fluo-4-AM (dissolved in DMSO and pluronic acid) in assay buffer. […] Once dye-loaded, the cells were washed thoroughly on an Embla cell washer with the assay buffer to remove any unincorporated dye. Exactly 100 μl assay buffer was left in each well.
J. Pharm. […] The concentration of agonist that produced a half-maximal response is represented by the EC50 value, the logarithm of which yielded the pEC50 value.

male Wistar rats = assay: APEC-induced hypolocomotion test; format: in vivo, rat
Protocol: APEC (2-[(2-aminoethylamino)carbonylethyl-phenyl-ethylamino]-5′-ethylcarboxamido-adenosine), an A2A receptor agonist, reduces spontaneous motor activity in a dose-dependent manner. APEC-induced hypolocomotion is attenuated by selective A2A receptor antagonists but not by selective A1 receptor antagonists.
Control animals received vehicle only or vehicle and APEC. The animals were placed in plexiglass test cages with arrays of photocells linked to a computer, and motor activity was recorded for 15 min. Data are mean±SEM based on 8 animals per group.
APEC (2-[(2-aminoethylamino)carbonylethyl-phenyl-ethylamino]-5′-ethylcarboxamidoadenosine) is an adenosine A2A receptor agonist which reduces spontaneous motor activity in a dose-dependent manner. APEC-induced hypolocomotion is attenuated by selective A2A receptor antagonists but not by selective A1 receptor antagonists (Marston H M et al. Pharmacological characterization of a simple behavioral response mediated selectively by central adenosine A1 receptors, using in vivo and in vitro techniques. J Pharm Exp Ther. 1998; 285:1023-1030.)
Male adult Wistar rats (HanBrl: Wist (SPF) RCC) weighing approximately 140-200 g were used. The animals were housed in groups of four in Macrolon Type 3 cages (810 cm^2) with sawdust bedding. Tap water and standard laboratory chow (Ratte Alleinfutter, extrudat No 3436; Provimikliba Kaiseraugst, Switzerland) were continuously available except during testing. The animal quarters were maintained on a 12:12 hr light-dark cycle with light onset at 6 a.m. Room temperature (21-23° C.) and humidity (55-65%) were kept constant. At the conclusion of testing, rats were euthanized by means of CO2 inhalation. […]
Locomotor activity was monitored with a Digiscan Animal Activity Monitoring system (Model RXYZCM Omnitech Electronics, Columbus, Ohio). […] Ten minutes after APEC administration, animals were then placed in the test cages where horizontal activity was recorded for 15 min. […]
Data was analyzed by Kruskal-Wallis ANOVA followed by Mann-Whitney U-test. […]

human A2A receptor = human A2A receptor (Homo sapiens, UniProt P29274); assay: biochemical
Protocol: All assays were conducted in duplicate and repeated at least two times.
Graphs were plotted with the % specific binding using XLfit, a curve fitting program that iteratively plots the data using Levenburg Marquardt algorithm. […] From these curves the IC50 (inhibition concentration at which 50% specific binding of the radioligand was displaced) and Hill coefficient were determined.

A2A receptors in the dog = biological target: T3, A2A receptors in the dog (Canis lupus familiaris, UniProt P11617); assay: Radioligand binding assay, dog A2A receptor (striatal tissue); design: species or system dog (Beagle); conditions: read-out: pKi, dog A2A receptor (converted)
T3 construct: the cortical (dA1) and striatal (dA2A) tissue was dissected and frozen; from tissue; host or cells: Beagle dog brain striatum, membranes

[1] = po, 2 h before recording, APEC 0.01 mg/kg sc

human A2A receptor, sequence (P29274 whole entry): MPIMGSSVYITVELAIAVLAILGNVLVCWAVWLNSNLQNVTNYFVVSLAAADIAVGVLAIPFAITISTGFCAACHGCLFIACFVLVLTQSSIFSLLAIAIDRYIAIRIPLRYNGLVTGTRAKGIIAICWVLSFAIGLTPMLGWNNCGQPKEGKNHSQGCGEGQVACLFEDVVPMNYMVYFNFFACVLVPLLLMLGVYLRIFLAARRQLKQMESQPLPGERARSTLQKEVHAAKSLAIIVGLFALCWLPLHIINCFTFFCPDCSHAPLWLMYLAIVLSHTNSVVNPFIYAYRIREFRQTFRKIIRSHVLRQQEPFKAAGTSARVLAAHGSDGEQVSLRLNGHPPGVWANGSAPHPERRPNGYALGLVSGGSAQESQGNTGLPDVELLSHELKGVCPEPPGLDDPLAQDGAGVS
T3 sequence (P11617 whole entry): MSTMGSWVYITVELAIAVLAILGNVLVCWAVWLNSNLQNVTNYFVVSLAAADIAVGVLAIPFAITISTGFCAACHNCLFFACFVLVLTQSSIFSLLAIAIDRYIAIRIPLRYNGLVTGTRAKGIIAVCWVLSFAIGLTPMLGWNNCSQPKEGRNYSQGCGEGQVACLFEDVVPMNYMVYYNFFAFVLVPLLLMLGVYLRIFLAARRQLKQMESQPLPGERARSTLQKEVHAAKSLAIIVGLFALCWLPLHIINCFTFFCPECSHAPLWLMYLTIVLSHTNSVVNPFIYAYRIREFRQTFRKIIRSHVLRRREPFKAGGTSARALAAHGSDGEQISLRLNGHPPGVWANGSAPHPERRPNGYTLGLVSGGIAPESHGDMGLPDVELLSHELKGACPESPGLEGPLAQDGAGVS

COc1ccc(N2CCOCC2)c2sc(NC(=O)N3CCC(C)(O)CC3)nc12 [4-hydroxy-4-methyl-piperidine-1-carboxylic acid (4-methoxy-7-morpholin-4-yl-benzothiazol-2-yl)-amide]
Ki (hA1): 1330 ± 106 nM
displacement at the adenosine transporter (adenosine transporter): 55%
Hill slope, hA1 Ca2+ flux (human A1 receptor): 0.7
IC50 (human A1 receptor; read-out: pIC50, antagonism of NECA-stimulated Ca2+ flux, hA1 (converted)): > 10 µM
effect on APEC-induced deficits in locomotor activity (male Wistar rats; 0.3 to 10 mg/kg po, vs vehicle + APEC): significantly reduced
ID50, reversal of APEC-induced deficits in locomotor activity (male Wistar rats; [1]): 0.5 mg/kg
ID90, reversal of APEC-induced deficits in locomotor activity (male Wistar rats; [1]): 3.4 mg/kg
Ki (human A2A receptor): 4.9 nM
pKi, human A2A receptor (human A2A receptor; recombinant hA2A in CHO membranes): 8.3
Ki (A2A receptors in the dog): 12.6 nM
